Test results reported in paper PMC12621043, “Un-LOK-ing a New Approach for Conformational Selective Targeting of STK10 (LOK)” (ACS Medicinal Chemistry Letters, 2025).

Experiments:
DMPK1A = target: T1, DMPK1A (Homo sapiens, UniProt Q09013); test: DSF Tm panel; assay type: binding; settings: 10 μM compound
T1 construct: purchased in-house DSF kinase panel (SGC-style construct names; the trailing letter is the construct ID)
T1 sequence (Q09013 1-629): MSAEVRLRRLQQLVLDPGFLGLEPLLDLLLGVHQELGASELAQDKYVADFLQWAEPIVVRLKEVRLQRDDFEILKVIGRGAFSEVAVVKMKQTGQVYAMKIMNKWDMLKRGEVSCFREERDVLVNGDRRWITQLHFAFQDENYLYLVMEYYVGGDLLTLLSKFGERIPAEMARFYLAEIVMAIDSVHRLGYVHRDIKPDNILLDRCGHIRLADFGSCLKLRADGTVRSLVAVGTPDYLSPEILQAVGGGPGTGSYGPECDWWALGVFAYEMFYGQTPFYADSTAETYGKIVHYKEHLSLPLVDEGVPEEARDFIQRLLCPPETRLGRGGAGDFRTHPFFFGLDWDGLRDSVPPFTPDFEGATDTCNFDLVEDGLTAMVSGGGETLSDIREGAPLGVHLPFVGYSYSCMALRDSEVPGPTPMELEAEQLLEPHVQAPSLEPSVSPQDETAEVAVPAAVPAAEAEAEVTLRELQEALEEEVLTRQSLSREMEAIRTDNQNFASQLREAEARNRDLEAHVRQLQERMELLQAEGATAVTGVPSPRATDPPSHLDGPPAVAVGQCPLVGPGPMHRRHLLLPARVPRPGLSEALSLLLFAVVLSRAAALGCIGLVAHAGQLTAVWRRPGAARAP

DCAMKL1A = target: T2, DCAMKL1A (Homo sapiens, UniProt O15075); test: DSF Tm panel; assay type: binding; settings: 10 μM compound
T2 construct: purchased in-house DSF kinase panel (SGC-style construct names; the trailing letter is the construct ID)
T2 sequence (O15075 372-649): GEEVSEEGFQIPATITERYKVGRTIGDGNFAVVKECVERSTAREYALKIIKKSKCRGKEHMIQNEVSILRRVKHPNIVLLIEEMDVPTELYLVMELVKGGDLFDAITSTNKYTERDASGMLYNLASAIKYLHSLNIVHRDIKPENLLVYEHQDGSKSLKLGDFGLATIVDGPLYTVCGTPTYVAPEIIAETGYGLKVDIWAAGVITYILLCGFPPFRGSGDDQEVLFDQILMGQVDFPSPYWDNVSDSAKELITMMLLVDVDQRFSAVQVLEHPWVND

PKMYT1A = target: T3, PKMYT1A (Homo sapiens, UniProt Q99640); test: DSF Tm panel; assay type: binding; settings: 10 μM compound
T3 construct: purchased in-house DSF kinase panel (SGC-style construct names; the trailing letter is the construct ID)
T3 sequence (Q99640 75-362): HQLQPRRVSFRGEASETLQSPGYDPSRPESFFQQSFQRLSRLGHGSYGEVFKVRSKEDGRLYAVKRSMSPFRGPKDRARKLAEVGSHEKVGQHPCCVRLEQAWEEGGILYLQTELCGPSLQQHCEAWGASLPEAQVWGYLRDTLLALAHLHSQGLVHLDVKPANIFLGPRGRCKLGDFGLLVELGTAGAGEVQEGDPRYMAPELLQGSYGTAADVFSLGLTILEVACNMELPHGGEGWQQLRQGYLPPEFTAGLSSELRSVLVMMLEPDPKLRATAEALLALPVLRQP

OSR1A = target: T4, OSR1A (Homo sapiens, UniProt O95747); test: DSF Tm panel; assay type: binding; settings: 10 μM compound
T4 construct: purchased in-house DSF kinase panel (SGC-style construct names; the trailing letter is the construct ID)
T4 sequence (O95747 17-291): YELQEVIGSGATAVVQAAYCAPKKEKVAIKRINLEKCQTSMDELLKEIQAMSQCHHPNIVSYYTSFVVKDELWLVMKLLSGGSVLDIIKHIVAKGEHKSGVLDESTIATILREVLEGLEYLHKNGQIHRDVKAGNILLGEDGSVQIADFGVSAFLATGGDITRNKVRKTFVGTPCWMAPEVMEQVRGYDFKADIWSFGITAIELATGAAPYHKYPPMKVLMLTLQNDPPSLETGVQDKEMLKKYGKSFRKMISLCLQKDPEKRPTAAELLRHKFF

DAPK3 (DAPK3A) = target: T5, DAPK3 (DAPK3A) (Homo sapiens, UniProt O43293); test: DSF Tm panel; assay type: binding; settings: 10 μM compound
T5 construct: purchased in-house DSF kinase panel (SGC-style construct names; the trailing letter is the construct ID)
T5 sequence (O43293 whole entry): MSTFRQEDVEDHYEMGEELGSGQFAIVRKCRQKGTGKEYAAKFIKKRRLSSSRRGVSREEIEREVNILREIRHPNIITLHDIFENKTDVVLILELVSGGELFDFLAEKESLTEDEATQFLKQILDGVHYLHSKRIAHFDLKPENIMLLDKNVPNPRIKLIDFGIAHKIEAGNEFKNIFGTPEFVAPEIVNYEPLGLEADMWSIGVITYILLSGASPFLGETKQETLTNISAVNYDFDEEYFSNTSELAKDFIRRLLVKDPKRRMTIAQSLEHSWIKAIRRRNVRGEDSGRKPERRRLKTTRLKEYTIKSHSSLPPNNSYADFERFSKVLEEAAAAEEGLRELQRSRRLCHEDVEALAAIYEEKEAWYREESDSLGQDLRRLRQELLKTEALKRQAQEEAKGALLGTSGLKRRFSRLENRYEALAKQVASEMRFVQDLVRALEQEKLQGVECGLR

SLK = SLK (Homo sapiens, UniProt Q9H2G2); test: NanoBRET target engagement assay; assay type: cell-based; parameters: has a greater impact on the full-length protein than on the kinase domains; host or cells: HEK293T (ATCC CRL-3216); settings: HEK293T cells
Sequence of SLK (Q9H2G2 whole entry, the tested form may be a part): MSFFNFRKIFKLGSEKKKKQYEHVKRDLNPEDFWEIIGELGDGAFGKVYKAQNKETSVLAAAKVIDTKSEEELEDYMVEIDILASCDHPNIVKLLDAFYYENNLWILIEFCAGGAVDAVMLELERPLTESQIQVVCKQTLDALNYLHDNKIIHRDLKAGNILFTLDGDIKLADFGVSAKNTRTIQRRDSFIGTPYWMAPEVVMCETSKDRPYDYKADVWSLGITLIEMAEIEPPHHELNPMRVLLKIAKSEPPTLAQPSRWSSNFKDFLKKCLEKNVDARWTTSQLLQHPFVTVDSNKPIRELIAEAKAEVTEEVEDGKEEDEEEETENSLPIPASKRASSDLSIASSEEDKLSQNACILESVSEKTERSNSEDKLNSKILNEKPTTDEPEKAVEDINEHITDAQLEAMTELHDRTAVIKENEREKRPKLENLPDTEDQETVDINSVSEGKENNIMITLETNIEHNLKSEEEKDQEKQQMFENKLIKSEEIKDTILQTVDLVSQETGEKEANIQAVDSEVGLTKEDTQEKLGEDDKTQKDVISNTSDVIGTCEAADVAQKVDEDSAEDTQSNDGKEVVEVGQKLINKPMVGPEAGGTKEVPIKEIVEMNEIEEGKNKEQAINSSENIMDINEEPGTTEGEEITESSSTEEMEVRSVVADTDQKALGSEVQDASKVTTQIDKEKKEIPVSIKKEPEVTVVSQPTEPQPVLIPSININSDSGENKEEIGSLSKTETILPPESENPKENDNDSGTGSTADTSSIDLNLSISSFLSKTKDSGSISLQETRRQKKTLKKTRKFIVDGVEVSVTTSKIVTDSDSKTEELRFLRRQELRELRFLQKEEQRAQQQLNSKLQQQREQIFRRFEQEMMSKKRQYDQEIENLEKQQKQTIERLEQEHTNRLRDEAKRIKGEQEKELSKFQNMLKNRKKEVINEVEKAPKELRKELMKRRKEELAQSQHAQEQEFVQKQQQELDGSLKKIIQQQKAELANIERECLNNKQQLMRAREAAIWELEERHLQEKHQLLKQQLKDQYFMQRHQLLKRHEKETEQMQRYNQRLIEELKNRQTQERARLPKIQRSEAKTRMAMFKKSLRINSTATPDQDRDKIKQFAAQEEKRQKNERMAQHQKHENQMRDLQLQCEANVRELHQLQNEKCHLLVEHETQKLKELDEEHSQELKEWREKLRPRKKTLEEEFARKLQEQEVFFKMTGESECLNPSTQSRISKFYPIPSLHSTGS

MST3A = target: T6, MST3A (Homo sapiens, UniProt Q9Y6E0); test: DSF Tm panel; assay type: binding; settings: 10 μM compound
T6 construct: purchased in-house DSF kinase panel (SGC-style construct names; the trailing letter is the construct ID)
T6 sequence (Q9Y6E0 whole entry): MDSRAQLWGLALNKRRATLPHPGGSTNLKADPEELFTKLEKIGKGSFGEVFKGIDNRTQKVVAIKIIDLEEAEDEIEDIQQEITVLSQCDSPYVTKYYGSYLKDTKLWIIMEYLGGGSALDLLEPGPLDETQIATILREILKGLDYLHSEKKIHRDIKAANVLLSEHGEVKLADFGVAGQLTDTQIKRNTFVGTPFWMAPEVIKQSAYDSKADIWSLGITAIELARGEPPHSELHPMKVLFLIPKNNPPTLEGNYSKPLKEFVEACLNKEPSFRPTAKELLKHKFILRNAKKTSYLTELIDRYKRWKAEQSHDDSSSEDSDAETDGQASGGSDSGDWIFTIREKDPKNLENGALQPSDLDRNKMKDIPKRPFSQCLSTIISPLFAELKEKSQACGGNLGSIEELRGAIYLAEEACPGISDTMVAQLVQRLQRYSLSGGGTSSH

EPHA2 (EPHA2A) = target: T7, EPHA2 (EPHA2A) (Homo sapiens, UniProt P29317); test: DSF Tm panel; assay type: binding; settings: 10 μM compound
T7 construct: purchased in-house DSF kinase panel (SGC-style construct names; the trailing letter is the construct ID)
T7 sequence (P29317 596-900): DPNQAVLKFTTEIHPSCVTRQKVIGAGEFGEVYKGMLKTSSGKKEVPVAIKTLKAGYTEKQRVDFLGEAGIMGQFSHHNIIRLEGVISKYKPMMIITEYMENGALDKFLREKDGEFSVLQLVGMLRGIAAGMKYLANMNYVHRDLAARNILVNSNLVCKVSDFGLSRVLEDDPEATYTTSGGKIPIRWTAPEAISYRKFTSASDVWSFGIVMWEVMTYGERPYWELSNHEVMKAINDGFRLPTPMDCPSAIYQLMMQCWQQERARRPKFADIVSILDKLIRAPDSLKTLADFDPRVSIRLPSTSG

CAMK2DA = target: T8, CAMK2DA (Homo sapiens, UniProt Q13557); test: DSF Tm panel; assay type: binding; settings: 10 μM compound
T8 construct: purchased in-house DSF kinase panel (SGC-style construct names; the trailing letter is the construct ID)
T8 sequence (Q13557 11-309): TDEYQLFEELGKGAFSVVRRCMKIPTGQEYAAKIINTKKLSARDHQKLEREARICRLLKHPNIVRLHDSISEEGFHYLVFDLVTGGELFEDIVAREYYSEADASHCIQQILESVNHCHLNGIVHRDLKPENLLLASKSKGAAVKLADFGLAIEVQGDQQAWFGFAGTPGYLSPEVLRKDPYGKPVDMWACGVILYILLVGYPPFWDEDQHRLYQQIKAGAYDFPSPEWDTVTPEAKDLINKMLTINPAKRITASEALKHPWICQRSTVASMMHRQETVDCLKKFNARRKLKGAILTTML

AAK1 (AAK1A) = target: T9, AAK1 (AAK1A) (Homo sapiens, UniProt Q2M2I8); test: DSF Tm panel; assay type: binding; settings: 10 μM compound
T9 construct: purchased in-house DSF kinase panel (SGC-style construct names; the trailing letter is the construct ID)
T9 sequence (Q2M2I8 27-365): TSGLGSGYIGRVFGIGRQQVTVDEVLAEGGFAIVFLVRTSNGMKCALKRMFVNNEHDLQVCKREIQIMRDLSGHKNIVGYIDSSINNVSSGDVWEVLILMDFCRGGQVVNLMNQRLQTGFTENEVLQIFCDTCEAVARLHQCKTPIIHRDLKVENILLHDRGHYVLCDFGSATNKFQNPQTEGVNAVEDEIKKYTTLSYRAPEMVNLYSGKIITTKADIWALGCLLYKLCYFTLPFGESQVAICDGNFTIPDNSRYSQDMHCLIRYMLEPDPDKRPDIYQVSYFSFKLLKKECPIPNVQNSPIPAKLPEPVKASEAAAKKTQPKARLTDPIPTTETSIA

STK17BA = target: T10, STK17BA (Homo sapiens, UniProt O94768); test: DSF Tm panel; assay type: binding; settings: 10 μM compound
T10 construct: purchased in-house DSF kinase panel (SGC-style construct names; the trailing letter is the construct ID)
T10 sequence (O94768 25-329): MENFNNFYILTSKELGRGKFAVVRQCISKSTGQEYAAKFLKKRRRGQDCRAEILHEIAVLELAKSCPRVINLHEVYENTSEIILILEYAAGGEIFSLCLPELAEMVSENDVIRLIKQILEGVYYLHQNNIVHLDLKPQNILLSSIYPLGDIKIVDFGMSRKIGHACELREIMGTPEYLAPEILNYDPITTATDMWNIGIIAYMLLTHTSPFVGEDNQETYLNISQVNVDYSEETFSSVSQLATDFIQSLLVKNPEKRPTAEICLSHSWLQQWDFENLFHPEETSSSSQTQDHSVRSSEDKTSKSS

MAPK15A (MAPK15HSD) = target: T11, MAPK15A (MAPK15HSD) (Homo sapiens, UniProt Q8TD08); test: DSF Tm panel; assay type: binding; settings: 10 μM compound
T11 sequence (Q8TD08 13-304 limits assumed): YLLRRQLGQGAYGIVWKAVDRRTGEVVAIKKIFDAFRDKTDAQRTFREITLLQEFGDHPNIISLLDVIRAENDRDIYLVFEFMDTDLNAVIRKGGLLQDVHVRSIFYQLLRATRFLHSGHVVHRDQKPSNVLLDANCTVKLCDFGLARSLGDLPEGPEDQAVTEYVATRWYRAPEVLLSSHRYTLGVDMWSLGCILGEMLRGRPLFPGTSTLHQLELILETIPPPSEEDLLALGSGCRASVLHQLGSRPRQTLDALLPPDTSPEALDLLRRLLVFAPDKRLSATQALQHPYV

Compound	ΔTm at 10 µM (DMPK1A) [°C]	ΔTm at 10 µM (DCAMKL1A) [°C]	ΔTm at 10 µM (PKMYT1A) [°C]	ΔTm at 10 µM (OSR1A) [°C]	ΔTm at 10 µM (DAPK3 (DAPK3A)) [°C]	EC50 (SLK) [µM]	ΔTm at 10 µM (MST3A) [°C]	ΔTm at 10 µM (EPHA2 (EPHA2A)) [°C]	ΔTm at 10 µM (CAMK2DA) [°C]	ΔTm at 10 µM (AAK1 (AAK1A)) [°C]	ΔTm at 10 µM (STK17BA) [°C]	ΔTm at 10 µM (MAPK15A (MAPK15HSD)) [°C]
Cc1ccc(F)cc1CNC(=O)Nc1ccc2cc1OCCOCCNc1ccn3ncc-2c3n1 [compound 26]	0.3	1.6	0.3	1.2	1.2	> 50	-2	0.3	2.4	5	3.1	2.4
O=C(NCc1ccccc1C(F)(F)F)Nc1ccc2cc1OCCOCCNc1ccn3ncc-2c3n1 [compound 27]	0.2	2.3	0.7	2.1	1.2	> 50	-3.4	0.2	2.5	3.9	5.1	2.4
O=C(NCc1ccc(C(F)(F)F)cc1)Nc1ccc2cc1OCCOCCNc1ccn3ncc-2c3n1 [compound 28]	0.3	2.7	1.1	2.2	1.2	> 50	-4.5	0.1	2.7	4.7	4.8	0.5
COc1ccccc1CNC(=O)Nc1ccc2cc1OCCOCCNc1ccn3ncc-2c3n1 [compound 29]	0.3	0.9	-0.1	0.9	0.5	> 50	-7.7	0.4	2.1	5.5	1.7	3.3
